Measured values reported in patent US12077503B2, “Substituted cyclic amides and their use as herbicides” (FMC CORPORATION, priority 2015, dated 2024).
Like-named read-outs stand apart in the source and are kept apart here.

Experiments:
Format in all cases: in vivo
[1] = system: ducksalad (Heteranthera limosa); experiment: Test B flooded paddy test; conditions: Heteranthera limosa, 250 g ai/ha, Flood; 0 to 100 scale where 0 is no effect and 100 is complete control; read-out: Ducksalad plant response rating
How it was run: (§1)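 Compound goes directly into floodwater once pots are flooded 3 cm above soil, targeting plants at two leaves; the water depth is then held for the test duration. Plants sit 13–15 d in a greenhouse and are rated visually, 100 denoting complete control.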

rice (Oryra sativa) = experiment: Test B flooded paddy test; conditions: Oryza sativa, 250 g ai/ha, Flood; 0 to 100 scale where 0 is no effect and 100 is complete control; read-out: Rice plant response rating
How it was run: as §1

[2] = system: sedge, umbrella (small-flower umbrella sedge, Cyperus difformis); experiment: Test B flooded paddy test; conditions: Cyperus difformis, 250 g ai/ha, Flood; 0 to 100 scale where 0 is no effect and 100 is complete control; read-out: Sedge, Umbrella plant response rating
How it was run: as §1

[3] = system: barnyardgrass (Echinochloa crus-galli); experiment: Test B flooded paddy test; conditions: Echinochloa crus-galli, 250 g ai/ha, Flood; 0 to 100 scale where 0 is no effect and 100 is complete control; read-out: Barnyardgrass plant response rating
How it was run: as §1

[4] = system: ragweed (common ragweed, Ambrosia elatior); experiment: Test A preemergence; conditions: Ambrosia artemisiifolia, pre-emergence, 240 h, preemergence, read-out: Ragweed plant response rating; for pest or weed control at 125 g/ha: 125 g ai/ha, approx. 10 d; for pest or weed control at 500 g/ha: 500 g ai/ha
How it was run: (§2)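 Each rating is a visual injury score from 0 to 100 given about 10 d after treatment, judged against untreated controls kept alongside in the greenhouse. In loam soil–sand blend, seeds got a preemergence directed soil spray, while postemergence plants were 2 to 10 cm tall at spraying.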

[5] = system: ryegrass, Italian (Italian ryegrass, Lolium multiflorum); experiment: Test A preemergence; conditions: Lolium multiflorum, pre-emergence, 240 h, preemergence, read-out: Ryegrass, Italian plant response rating; for pest or weed control at 125 g/ha: 125 g ai/ha, approx. 10 d; for pest or weed control at 500 g/ha: 500 g ai/ha
How it was run: as §2

Kochia (Kochia scoparia) [6] = experiment: Test A preemergence; conditions: Bassia scoparia, pre-emergence, 240 h, preemergence, read-out: Kochia plant response rating; for pest or weed control at 125 g/ha: 125 g ai/ha, approx. 10 d; for pest or weed control at 500 g/ha: 500 g ai/ha
How it was run: as §2

[7] = system: giant foxtail (Setaria faberii); experiment: Test A preemergence; conditions: Setaria faberi, pre-emergence, 240 h, preemergence, read-out: Foxtail, Giant plant response rating; for pest or weed control at 125 g/ha: 125 g ai/ha, approx. 10 d; for pest or weed control at 500 g/ha: 500 g ai/ha
How it was run: as §2

[8] = system: pigweed (Amaranthus retroflexus); experiment: Test A preemergence; conditions: Amaranthus retroflexus, pre-emergence, 240 h, preemergence, read-out: Pigweed plant response rating; for pest or weed control at 125 g/ha: 125 g ai/ha, approx. 10 d; for pest or weed control at 500 g/ha: 500 g ai/ha
[9] = system: barnyardgrass (Echinochloa crus-galli); experiment: Test A preemergence; conditions: Echinochloa crus-galli, pre-emergence, 240 h, preemergence, read-out: Barnyardgrass plant response rating; for pest or weed control at 125 g/ha: 125 g ai/ha, 0 to 100 scale where 0 is no effect and 100 is complete control, approx. 10 d; for pest or weed control at 500 g/ha: 500 g ai/ha, visual injury rating about 10 d after treatment, 0 to 100 scale (0 no effect, 100 complete control)
How it was run: as §2

[10] = system: ragweed (common ragweed, Ambrosia elatior); experiment: Test A postemergence; conditions: Ambrosia artemisiifolia, post-emergence, 240 h, postemergence, read-out: Ragweed plant response rating; for pest or weed control at 125 g/ha: 125 g ai/ha, visual injury on 0 to 100 scale (0 no effect, 100 complete control), approx. 10 d; for pest or weed control at 500 g/ha: 500 g ai/ha, 0 to 100 scale, 0 is no effect, 100 is complete control
How it was run: as §2

Kochia (Kochia scoparia) [11] = experiment: Test A postemergence; conditions: Bassia scoparia, post-emergence, 240 h, postemergence, read-out: Kochia plant response rating; for pest or weed control at 125 g/ha: 125 g ai/ha, visual injury on 0 to 100 scale (0 no effect, 100 complete control), approx. 10 d; for pest or weed control at 500 g/ha: 500 g ai/ha, 0 to 100 scale, 0 is no effect, 100 is complete control
How it was run: as §2

[12] = system: giant foxtail (Setaria faberii); experiment: Test A postemergence; conditions: Setaria faberi, post-emergence, 240 h, postemergence, read-out: Foxtail, Giant plant response rating; for pest or weed control at 125 g/ha: 125 g ai/ha, visual injury on 0 to 100 scale (0 no effect, 100 complete control), approx. 10 d; for pest or weed control at 500 g/ha: 500 g ai/ha, 0 to 100 scale, 0 is no effect, 100 is complete control
How it was run: as §2

[13] = system: barnyardgrass (Echinochloa crus-galli); experiment: Test A postemergence; conditions: Echinochloa crus-galli, post-emergence, 240 h, postemergence, read-out: Barnyardgrass plant response rating; for pest or weed control at 125 g/ha: 125 g ai/ha, visual injury on 0 to 100 scale (0 no effect, 100 complete control), approx. 10 d; for pest or weed control at 500 g/ha: 500 g ai/ha, 0 to 100 scale, 0 is no effect, 100 is complete control
How it was run: as §2

[14] = 0 to 100 scale where 0 is no effect and 100 is complete control
[15] = visual injury rating about 10 d after treatment, 0 to 100 scale (0 no effect, 100 complete control)

Compound	pest or weed control at 250 g/ha [1] [%]	pest or weed control at 250 g/ha (rice (Oryra sativa)) [%]	pest or weed control at 250 g/ha [2] [%]	pest or weed control at 250 g/ha [3] [%]	pest or weed control at 125 g/ha [4, 14] [%]	pest or weed control at 125 g/ha [5, 14] [%]	pest or weed control at 125 g/ha (Kochia (Kochia scoparia) [6]; [14]) [%]	pest or weed control at 125 g/ha [7, 14] [%]	pest or weed control at 125 g/ha [8, 14] [%]	pest or weed control at 125 g/ha [9] [%]	pest or weed control at 500 g/ha [9] [%]	pest or weed control at 125 g/ha [10] [%]	pest or weed control at 500 g/ha [10] [%]	pest or weed control at 125 g/ha (Kochia (Kochia scoparia) [11]) [%]	pest or weed control at 500 g/ha (Kochia (Kochia scoparia) [11]) [%]	pest or weed control at 125 g/ha [12] [%]	pest or weed control at 500 g/ha [12] [%]	pest or weed control at 125 g/ha [13] [%]	pest or weed control at 500 g/ha [13] [%]	also measured
Cc1cc([C@H]2CN(C)C(=O)[C@@H]2C(=O)Nc2ccc(F)c(F)c2F)ccc1Br [Compound 1101]	60	0	0	30	0	30	60	90	0	90	90	0	0	30	60	70	80	70	80	pest or weed control at 500 g/ha [4, 15]: 40%; pest or weed control at 500 g/ha [5, 15]: 70%; pest or weed control at 500 g/ha (Kochia (Kochia scoparia) [6]; [15]): 70%; pest or weed control at 500 g/ha [7, 15]: 90%; pest or weed control at 500 g/ha [8, 15]: 20%
Cc1cc([C@H]2CN(C)C(=O)[C@@H]2C(=O)Nc2ccccc2S(C)(=O)=O)ccc1Br [Compound 1102]	85	0	0	60	0	30	20	90	20	90	90	0	20	0	0	80	90	80	80	pest or weed control at 500 g/ha [4, 14]: 50%; pest or weed control at 500 g/ha [5, 14]: 60%; pest or weed control at 500 g/ha (Kochia (Kochia scoparia) [6]; [14]): 70%; pest or weed control at 500 g/ha [7, 14]: 90%; pest or weed control at 500 g/ha [8, 14]: 50%
